Where two headings read alike, the source gives them in different places. Peptide text beside a SMILES is read from it. * marks the point of attachment. Hexanoyl(6-maleimido) = O=C1C=CC(=O)N1CCCCCC(=O)*; Propanoyl(3-maleimido) = O=C1C=CC(=O)N1CCC(=O)*; X33 = O=C1C=CC(=O)N1CCOCCOCCOCCCCC(=O)*; X56 = O=C1C=CC(=O)N1c1ccc(CCC(=O)*)cc1; X70 = O=C1C=CC(=O)N1CCOCCOCCOCCCC(=O)*; X3 = O=C1C=CC(=O)N1CCOCCOCCCCC(=O)*; X57 = O=C1C=CC(=O)N1CCCCCCCC(=O)*; X38 = O=C1C=CC(=O)N1CCOCC(=O)*
Experiment: Half-lives and pharmacokinetic parameters of polypeptides vs HM-1
Details: in vivo
[1] = read-out: T1/2β (half-life) (converted)

AUC(0-inf) [ng·h/mL]	MRT inf [h]	clearance [mL/min/kg]	half-life (T1/2β (half-life)) [h]	AUC(0-inf) (read-out: AUC0-∞) [ng·h/mL]	clearance (read-out: CL (converted)) [mL/min/kg]	MRT inf (read-out: MRT0-∞) [h]	half-life [1] [h]	SMILES	half-life [h]
31400 ± 7550	56.2 ± 11.2	0.532	38.94 ± 0.25					C[C@H](NC(=O)CNC(=O)[C@H](CCCNC(=N)N)NC(=O)CCc1ccc(N2C(=O)C=CC2=O)cc1)C(=O)N[C@@H](CC(=O)O)C(=O)N[C@@H](CCCNC(=N)N)C(=O)N[C@@H](C)C(=O)NCC(=O)NCC(=O)NCC(=O)NCC(=O)N[C@@H](CCCNC(=N)N)C(=O)NCC(=O)N[C@@H](CC(=O)O)C(=O)O [X38] (X56-RGADRAGGGGRGD-OH)	
				28500 ± 7290	0.585	51 ± 11.1	35.31 ± 0.32	C[C@H](NC(=O)CNC(=O)[C@H](CCCNC(=N)N)NC(=O)COCCN1C(=O)C=CC1=O)C(=O)N[C@@H](CC(=O)O)C(=O)N[C@@H](CCCNC(=N)N)C(=O)N[C@@H](C)C(=O)NCC(=O)NCC(=O)NCC(=O)NCC(=O)N[C@@H](CCCNC(=N)N)C(=O)NCC(=O)N[C@@H](CC(=O)O)C(=O)O [X49] (X38-RGADRAGGGGRGD-OH)	
30300 ± 7110	54.2 ± 9.93	0.553	37.55 ± 0.27					C[C@H](NC(=O)CNC(=O)[C@H](CCCNC(=N)N)NC(=O)CCCCOCCOCCN1C(=O)C=CC1=O)C(=O)N[C@@H](CC(=O)O)C(=O)N[C@@H](CCCNC(=N)N)C(=O)N[C@@H](C)C(=O)NCC(=O)NCC(=O)NCC(=O)NCC(=O)N[C@@H](CCCNC(=N)N)C(=O)NCC(=O)N[C@@H](CC(=O)O)C(=O)O [X59] (X3-RGADRAGGGGRGD-OH)	
				27800 ± 7510	0.6	49.8 ± 9.73	34.51 ± 0.28	C[C@H](NC(=O)CNC(=O)[C@H](CCCNC(=N)N)NC(=O)CCN1C(=O)C=CC1=O)C(=O)N[C@@H](CC(=O)O)C(=O)N[C@@H](CCCNC(=N)N)C(=O)N[C@@H](C)C(=O)NCC(=O)NCC(=O)NCC(=O)NCC(=O)N[C@@H](CCCNC(=N)N)C(=O)NCC(=O)N[C@@H](CC(=O)O)C(=O)O [X2] ({Propanoyl(3-maleimido)}-RGADRAGGGGRGD-OH)	
34500 ± 6960	61.8 ± 14.3	0.485	42.83 ± 0.29					C[C@H](NC(=O)CNC(=O)[C@H](CCCNC(=N)N)NC(=O)CCCCCCCN1C(=O)C=CC1=O)C(=O)N[C@@H](CC(=O)O)C(=O)N[C@@H](CCCNC(=N)N)C(=O)N[C@@H](C)C(=O)NCC(=O)NCC(=O)NCC(=O)NCC(=O)N[C@@H](CCCNC(=N)N)C(=O)NCC(=O)N[C@@H](CC(=O)O)C(=O)O [X7] (X57-RGADRAGGGGRGD-OH)	
31800 ± 7280	57.1 ± 12.2	0.523	39.53 ± 0.31					C[C@H](NC(=O)CNC(=O)[C@H](CCCNC(=N)N)NC(=O)CCCOCCOCCOCCN1C(=O)C=CC1=O)C(=O)N[C@@H](CC(=O)O)C(=O)N[C@@H](CCCNC(=N)N)C(=O)N[C@@H](C)C(=O)NCC(=O)NCC(=O)NCC(=O)NCC(=O)N[C@@H](CCCNC(=N)N)C(=O)NCC(=O)N[C@@H](CC(=O)O)C(=O)O [X65] (X70-RGADRAGGGGRGD-OH)	
				31200 ± 8090	0.535	55.8 ± 13.4	38.67 ± 0.27	C[C@H](NC(=O)[C@H](CCCNC(=N)N)NC(=O)[C@H](CC(=O)O)NC(=O)CNC(=O)[C@H](CCCNC(=N)N)NC(=O)CCCCCN1C(=O)C=CC1=O)C(=O)NCC(=O)NCC(=O)NCC(=O)NCC(=O)N[C@@H](CCCNC(=N)N)C(=O)NCC(=O)N[C@@H](CC(=O)O)C(=O)O [P8] ({Hexanoyl(6-maleimido)}-RGDRAGGGGRGD-OH; C-terminus assumed)	
				31800 ± 8090	0.525	56.9 ± 14.2	3944 ± 0.27	C[C@H](NC(=O)CNC(=O)[C@H](CCCNC(=N)N)NC(=O)CCN1C(=O)C=CC1=O)C(=O)N[C@@H](CC(=O)O)C(=O)N[C@@H](CCCNC(=N)N)C(=O)N[C@@H](C)C(=O)NCC(=O)N[C@@H](CO)C(=O)N[C@@H](CO)C(=O)N[C@@H](CO)C(=O)N[C@@H](CO)C(=O)N[C@@H](CCCNC(=N)N)C(=O)NCC(=O)N[C@@H](CC(=O)O)C(=O)O [P13] ({Propanoyl(3-maleimido)}-RGADRAGSSSSRGD-OH; C-terminus assumed)	
27700 ± 7510	49.6 ± 9.77	0.602	34.38 ± 0.25					C[C@H](NC(=O)CNC(=O)[C@H](CCCNC(=N)N)NC(=O)CCCCOCCOCCOCCN1C(=O)C=CC1=O)C(=O)N[C@@H](CC(=O)O)C(=O)N[C@@H](CCCNC(=N)N)C(=O)N[C@@H](C)C(=O)NCC(=O)NCC(=O)NCC(=O)NCC(=O)N[C@@H](CCCNC(=N)N)C(=O)NCC(=O)N[C@@H](CC(=O)O)C(=O)O [X66] (X33-RGADRAGGGGRGD-OH)	

SMILES	AUC(0-inf) [ng·h/mL]	MRT inf [h]	clearance [mL/min/kg]	half-life (T1/2β (half-life)) [h]	AUC(0-inf) (read-out: AUC0-∞) [ng·h/mL]	clearance (read-out: CL (converted)) [mL/min/kg]	MRT inf (read-out: MRT0-∞) [h]	half-life [1] [h]	half-life [h]
C[C@H](NC(=O)[C@H](CCCNC(=N)N)NC(=O)[C@H](CC(=O)O)NC(=O)[C@H](CCC(=O)O)NC(=O)CNC(=O)[C@H](CCCNC(=N)N)NC(=O)CCN1C(=O)C=CC1=O)C(=O)NCC(=O)NCC(=O)NCC(=O)NCC(=O)N[C@@H](CCCNC(=N)N)C(=O)NCC(=O)N[C@@H](CC(=O)O)C(=O)O [P5] ({Propanoyl(3-maleimido)}-RGEDRAGGGGRGD-OH; C-terminus assumed)	29200 ± 7880	52.4 ± 12.2	0.57						36.28 ± 0.25

— patent publication US20200270309A1, “MALEIMIDE GROUP-MODIFIED ANGIOGENESIS INHIBITOR HM-1 AND USE THEREOF” (NANJING ANJI BIOLOGICAL TECHNOLOGY CO., LTD, priority 2017, published 2020)
